Measured values from ChEMBL document CHEMBL5137032, “Design, synthesis of DNA-interactive 4-thiazolidinone-based indolo-/pyrroloazepinone conjugates as potential cytotoxic and topoisomerase I inhibitors” (Eur J Med Chem, 2022).
The source made the active and inactive calls. The rule behind the calls is not given here.

How the values were obtained:
SK-MEL-28 [1] = experiment: Induction of apoptosis in human SK-MEL-28 cells assessed as membrane blebbing at 2.08 to 8.32 uM incubated for 48 hrs by AO/EB staining based fluorescence microscopy; format: functional, cell-based; settings: dose 2.08-8.32 µM, DDE = dose-dependent effect
MCF7 = experiment: Cytotoxicity against human MCF7 cells assessed as cell growth inhibition incubated for 48 hrs by MTT assay; format: functional, cell-based; settings: MCF7, 48 h
HT-29 = experiment: Cytotoxicity against human HT-29 cells assessed as cell growth inhibition incubated for 48 hrs by MTT assay; format: functional, cell-based; settings: HT-29, 48 h
SK-MEL-28 [2] = experiment: Induction of apoptosis in human SK-MEL-28 cells assessed as late apoptotic cells measured upto 4.16 uM incubated for 48 hrs by Annexin V-FITC/propidium iodide staining based flow cytometric analysis; format: functional, cell-based
SK-MEL-28 [3] = experiment: Induction of apoptosis in human SK-MEL-28 cells assessed as apoptotic body fragmentation at 2.08 to 8.32 uM incubated for 48 hrs by AO/EB staining based fluorescence microscopy; format: functional, cell-based; settings: dose 2.08-8.32 µM, DDE = dose-dependent effect
SK-MEL-28 [4] = experiment: Induction of apoptosis in human SK-MEL-28 cells assessed as chromatin condensation at 2.08 to 8.32 uM incubated for 48 hrs by DAPI staining based fluorescence microscopic analysis; format: functional, cell-based; settings: dose 2.08-8.32 µM
SK-MEL-28 [5] = experiment: Induction of apoptosis in human SK-MEL-28 cells assessed as reduction on viable cells at 2.08 to 8.32 uM incubated for 48 hrs by phase contrast microscopy; format: functional, cell-based; settings: dose 2.08-8.32 µM, DDE = dose-dependent effect
DNA topoisomerase 1 = biological target: T1, DNA topoisomerase 1 (Homo sapiens, UniProt P11387); experiment: Inhibition of human DNA topoisomerase 1 assessed as reduction in pBR322 DNA relaxation incubated for 1 hrs measured by agarose gel electrophoresis method
T1 sequence (P11387 whole entry): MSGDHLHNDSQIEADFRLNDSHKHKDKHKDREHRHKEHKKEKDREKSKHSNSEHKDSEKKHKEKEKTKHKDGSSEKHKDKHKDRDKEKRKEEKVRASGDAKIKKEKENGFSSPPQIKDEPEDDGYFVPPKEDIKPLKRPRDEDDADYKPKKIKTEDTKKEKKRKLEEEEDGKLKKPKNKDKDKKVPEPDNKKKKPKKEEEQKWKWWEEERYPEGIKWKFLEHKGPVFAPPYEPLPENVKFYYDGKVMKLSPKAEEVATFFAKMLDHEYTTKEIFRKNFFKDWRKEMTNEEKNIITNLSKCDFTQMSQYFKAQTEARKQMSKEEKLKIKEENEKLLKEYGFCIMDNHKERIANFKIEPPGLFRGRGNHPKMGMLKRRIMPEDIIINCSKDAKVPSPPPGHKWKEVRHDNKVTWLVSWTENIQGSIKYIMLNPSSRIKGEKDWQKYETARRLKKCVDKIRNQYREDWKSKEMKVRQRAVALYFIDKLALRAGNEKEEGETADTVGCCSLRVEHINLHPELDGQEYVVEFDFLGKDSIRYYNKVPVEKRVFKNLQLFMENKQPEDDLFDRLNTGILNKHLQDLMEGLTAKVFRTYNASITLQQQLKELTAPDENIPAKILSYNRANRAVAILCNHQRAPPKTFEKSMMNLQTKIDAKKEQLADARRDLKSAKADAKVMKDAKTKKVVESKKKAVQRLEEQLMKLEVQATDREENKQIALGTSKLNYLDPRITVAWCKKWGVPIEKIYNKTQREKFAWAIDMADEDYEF

A549 = experiment: Cytotoxicity against human A549 cells assessed as cell growth inhibition incubated for 48 hrs by MTT assay; format: functional, cell-based; settings: A549, 48 h
SK-MEL-28 [6] = experiment: Inhibition of colony formation in human SK-MEL-28 cells assessed as decrease in colonies at 2.08 to 8.32 uM incubated for 7 days by crystal violet staining based assay; format: functional, cell-based; settings: dose 2.08-8.32 µM, time 7.0 day, DDE = dose-dependent effect
SK-MEL-28 [7] = experiment: Anti-migration activity in human SK-MEL-28 cells assessed as distance travelled at 4.16 uM by wound healing assay based phase contrast microscopy; format: functional
SK-MEL-28 [8] = experiment: Inhibition of cell migration in human SK-MEL-28 cells at 2.08 to 8.32 uM incubated for 48 hrs by wound healing assay based phase contrast microscopy; format: functional; settings: dose 2.08-8.32 µM, DDE = dose-dependent effect
SK-MEL-28 [9] = experiment: Induction of intracellular ROS generation in human SK-MEL-28 cells at 2.08 to 8.32 uM incubated for 48 hrs by […] fluorescence microscopic analysis; format: functional, cell-based; settings: dose 2.08-8.32 µM, DDE = dose-dependent effect
SK-MEL-28 [10] = experiment: Anti-migration activity in human SK-MEL-28 cells assessed as distance travelled at 8.32 uM incubated for 48 hrs by wound healing assay based phase contrast microscopy; format: functional
Calf thymus DNA [11] = experiment: Binding affinity to calf thymus DNA assessed as hyperchromicity at 10 to 20 uM by UV-Vis spectroscopic analysis; format: nucleic-acid assay; settings: Bos taurus; dose 10-20 µM
[12] = biological target: DNA topoisomerase 2-alpha (Homo sapiens) (UniProt P11388); experiment: Inhibition of DNA topoisomerase 2 (unknown origin) assessed as reduction in decatenation using kDNA as substrate incubated for 30 mins measured by agarose gel electrophoresis method
Calf thymus DNA [13] = experiment: Binding affinity to calf thymus DNA assessed as hyperchromicity at 10 uM by circular dichroism spectroscopy; format: nucleic-acid assay; settings: Bos taurus
SK-MEL-28 [14] = experiment: Induction of apoptosis in human SK-MEL-28 cells assessed as nuclear fragmentation at 2.08 to 8.32 uM incubated for 48 hrs by DAPI staining based fluorescence microscopic analysis; format: functional, cell-based; settings: dose 2.08-8.32 µM
SK-MEL-28 [15] = experiment: Induction of apoptosis in human SK-MEL-28 cells assessed as changes in nuclear morphology at 2.08 to 8.32 uM incubated for 48 hrs by DAPI staining based fluorescence microscopic analysis; format: functional, cell-based; settings: dose 2.08-8.32 µM
[16] = biological target: T2, DNA topoisomerase 1 (Homo sapiens) (UniProt P11387); experiment: Inhibition of DNA topoisomerase 1 (unknown origin) assessed as reduction in pBR322 DNA relaxation at 10 uM incubated for 30 mins measured by agarose gel electrophoresis method relative to control
T2 sequence (whole entry): T1 sequence (P11387 whole entry)

SK-MEL-28 [17] = experiment: Induction of apoptosis in human SK-MEL-28 cells assessed as cell shrinkage at 2.08 to 8.32 uM incubated for 48 hrs by phase contrast microscopy; format: functional, cell-based; settings: dose 2.08-8.32 µM, DDE = dose-dependent effect
SK-MEL-28 [18] = experiment: Induction of apoptosis in human SK-MEL-28 cells assessed as cell shrinkage at 2.08 to 8.32 uM incubated for 48 hrs by AO/EB staining based fluorescence microscopy; format: functional; settings: dose 2.08-8.32 µM, DDE = dose-dependent effect
SK-MEL-28 [19] = experiment: Anti-migration activity in human SK-MEL-28 cells assessed as distance travelled at 8.32 uM by wound healing assay based phase contrast microscopy; format: functional
SK-MEL-28 [20] = experiment: Induction of apoptosis in human SK-MEL-28 cells assessed as cell membrane disruption at 2.08 to 8.32 uM incubated for 48 hrs by phase contrast microscopy; format: functional, cell-based; settings: dose 2.08-8.32 µM, DDE = dose-dependent effect
SK-MEL-28 [21] = experiment: Anti-migration activity in human SK-MEL-28 cells assessed as distance travelled at 4.16 uM incubated for 48 hrs by wound healing assay based phase contrast microscopy; format: functional
SK-MEL-28 [22] = experiment: Induction of apoptosis in human SK-MEL-28 cells assessed as changes in cell morphology at 2.08 to 8.32 uM incubated for 48 hrs by phase contrast microscopy; format: functional, cell-based; settings: dose 2.08-8.32 µM
SK-MEL-28 [23] = experiment: Induction of apoptosis in human SK-MEL-28 cells assessed as necrotic cells at 2.08 to 8.32 uM incubated for 48 hrs by Annexin V-FITC/propidium iodide staining based flow cytometric analysis; format: functional; settings: dose 2.08-8.32 µM
SK-MEL-28 [24] = experiment: Anti-migration activity in human SK-MEL-28 cells assessed as distance travelled at 2.08 uM by wound healing assay based phase contrast microscopy; format: functional
SK-MEL-28 [25] = experiment: Anti-migration activity in human SK-MEL-28 cells assessed as distance travelled at 2.08 uM incubated for 48 hrs by wound healing assay based phase contrast microscopy; format: functional
SK-MEL-28 [26] = experiment: Induction of apoptosis in human SK-MEL-28 cells assessed as chromatin condensation at 2.08 to 8.32 uM incubated for 48 hrs by AO/EB staining based fluorescence microscopy; format: functional, cell-based; settings: dose 2.08-8.32 µM, DDE = dose-dependent effect
[27] = Cytotoxicity against rat NRK cells assessed as cell growth inhibition incubated for 48 hrs by MTT assay; format: toxicity, cell-based
SK-MEL-28 [28] = experiment: Cytotoxicity against human SK-MEL-28 cells assessed as cell growth inhibition incubated for 48 hrs by MTT assay; format: functional, cell-based; settings: SK-MEL-28, 48 h
HCT-116 = experiment: Cytotoxicity against human HCT-116 cells assessed as cell growth inhibition incubated for 48 hrs by MTT assay; format: functional, cell-based; settings: HCT-116, 48 h
Calf thymus DNA [29] = experiment: Binding affinity to calf thymus DNA assessed as decrease in viscosity at 15 uM by ethidium bromide-Hoechst 33342 staining based analysis; format: nucleic-acid assay; settings: Bos taurus

DNA topoisomerase 2-alpha (Homo sapiens), sequence (P11388 whole entry): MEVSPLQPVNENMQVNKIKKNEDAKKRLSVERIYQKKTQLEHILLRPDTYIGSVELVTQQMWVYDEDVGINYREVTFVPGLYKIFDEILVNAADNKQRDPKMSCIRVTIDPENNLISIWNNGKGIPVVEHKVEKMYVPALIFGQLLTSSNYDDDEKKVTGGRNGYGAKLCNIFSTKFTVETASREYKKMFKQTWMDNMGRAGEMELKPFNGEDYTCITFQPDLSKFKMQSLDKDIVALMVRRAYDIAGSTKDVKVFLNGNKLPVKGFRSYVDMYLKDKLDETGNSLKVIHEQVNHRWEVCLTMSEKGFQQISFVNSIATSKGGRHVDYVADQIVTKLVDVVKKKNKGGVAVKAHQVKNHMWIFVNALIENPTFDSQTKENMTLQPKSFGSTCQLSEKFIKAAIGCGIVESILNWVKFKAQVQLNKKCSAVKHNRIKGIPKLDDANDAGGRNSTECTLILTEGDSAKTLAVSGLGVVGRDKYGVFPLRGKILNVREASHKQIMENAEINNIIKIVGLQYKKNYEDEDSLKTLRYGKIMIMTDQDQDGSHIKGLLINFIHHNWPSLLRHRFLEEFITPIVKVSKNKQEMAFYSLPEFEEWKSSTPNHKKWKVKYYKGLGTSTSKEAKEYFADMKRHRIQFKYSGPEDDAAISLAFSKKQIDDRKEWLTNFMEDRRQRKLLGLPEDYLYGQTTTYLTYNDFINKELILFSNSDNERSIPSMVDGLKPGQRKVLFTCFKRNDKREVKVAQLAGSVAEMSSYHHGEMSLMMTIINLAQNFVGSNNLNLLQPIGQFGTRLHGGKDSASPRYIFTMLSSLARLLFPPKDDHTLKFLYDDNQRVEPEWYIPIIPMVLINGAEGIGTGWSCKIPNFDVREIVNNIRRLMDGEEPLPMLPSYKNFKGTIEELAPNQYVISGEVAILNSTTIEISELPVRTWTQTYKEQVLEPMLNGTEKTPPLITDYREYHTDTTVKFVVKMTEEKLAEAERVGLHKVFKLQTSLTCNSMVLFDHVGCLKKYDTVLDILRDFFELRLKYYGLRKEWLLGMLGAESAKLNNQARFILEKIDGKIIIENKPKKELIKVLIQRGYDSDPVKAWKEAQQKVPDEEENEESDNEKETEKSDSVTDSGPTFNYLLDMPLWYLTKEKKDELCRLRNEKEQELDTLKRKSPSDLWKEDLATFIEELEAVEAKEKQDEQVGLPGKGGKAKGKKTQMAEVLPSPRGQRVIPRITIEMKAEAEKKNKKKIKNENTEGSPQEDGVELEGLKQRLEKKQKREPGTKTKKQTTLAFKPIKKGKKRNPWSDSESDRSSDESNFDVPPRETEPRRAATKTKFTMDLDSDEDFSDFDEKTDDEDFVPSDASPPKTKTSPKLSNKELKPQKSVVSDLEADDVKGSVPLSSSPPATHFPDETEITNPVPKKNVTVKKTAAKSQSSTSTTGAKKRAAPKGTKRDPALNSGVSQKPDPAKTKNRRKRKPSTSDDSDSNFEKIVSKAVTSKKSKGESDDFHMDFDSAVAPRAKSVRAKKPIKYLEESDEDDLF

Structure (SMILES): Cc1ccc(C/N=C2\NC(=O)/C(=C3\CCNC(=O)c4[nH]ccc43)S2)cc1
- Activity (SK-MEL-28 [1]): Dde
- IC50 (MCF7): 8.15 µM
- IC50 (HT-29): 6.83 µM
- Activity (SK-MEL-28 [2]): Active
- Activity (SK-MEL-28 [3]): Dde
- Activity (SK-MEL-28 [4]): Active
- Activity (SK-MEL-28 [5]): Dde
- IC50 (DNA topoisomerase 1): 34 µM
- IC50 (A549): 9.08 µM
- inhibition (SK-MEL-28 [6]): Dde
- Activity (SK-MEL-28 [7]): 736.33 um
- inhibition (SK-MEL-28 [8]): Dde
- Activity (SK-MEL-28 [9]): Dde
- Activity (SK-MEL-28 [10]): 573.08 um
- Activity (Calf thymus DNA [11]): Active
- inhibition [12]: Active
- Activity (Calf thymus DNA [13]): Active
- Activity (SK-MEL-28 [14]): Active
- Activity (SK-MEL-28 [15]): Active
- inhibition [16]: 17%
- Activity (SK-MEL-28 [17]): Dde
- Activity (SK-MEL-28 [18]): Dde
- Activity (SK-MEL-28 [19]): 798.09 um
- Activity (SK-MEL-28 [20]): Dde
- Activity (SK-MEL-28 [21]): 568.42 um
- Activity (SK-MEL-28 [22]): Active
- Activity (SK-MEL-28 [23]): 4.84%
- Activity (SK-MEL-28 [24]): 670 um
- Activity (SK-MEL-28 [25]): 434.44 um
- Activity (SK-MEL-28 [26]): Dde
- IC50 at 48 h [27]: 41.9 µM
- IC50 (SK-MEL-28 [28]): 4.15 µM
- IC50 (HCT-116): 4.76 µM
- Activity (Calf thymus DNA [29]): Active
